{"source": "paper PMC10608451", "about": "“Affinity Purification and Molecular Characterization of Angiotensin-Converting Enzyme (ACE)-Inhibitory Peptides from Takifugu flavidus” (Marine Drugs, 2023)", "molecules": {"B1": {"name": "TLRFALHGME (peptide)", "peptide": "TLRFALHGME", "notes": "source: Takifugu flavidus skin hydrolysate (alcalase, <1 kDa fraction); also synthetic peptide (Fmoc solid phase, Genscript)"}}, "key": {"ACE [1]": {"target": "T1, ACE (Homo sapiens, UniProt P12821)", "T1 sequence (P12821 30-1306, species assumed)": "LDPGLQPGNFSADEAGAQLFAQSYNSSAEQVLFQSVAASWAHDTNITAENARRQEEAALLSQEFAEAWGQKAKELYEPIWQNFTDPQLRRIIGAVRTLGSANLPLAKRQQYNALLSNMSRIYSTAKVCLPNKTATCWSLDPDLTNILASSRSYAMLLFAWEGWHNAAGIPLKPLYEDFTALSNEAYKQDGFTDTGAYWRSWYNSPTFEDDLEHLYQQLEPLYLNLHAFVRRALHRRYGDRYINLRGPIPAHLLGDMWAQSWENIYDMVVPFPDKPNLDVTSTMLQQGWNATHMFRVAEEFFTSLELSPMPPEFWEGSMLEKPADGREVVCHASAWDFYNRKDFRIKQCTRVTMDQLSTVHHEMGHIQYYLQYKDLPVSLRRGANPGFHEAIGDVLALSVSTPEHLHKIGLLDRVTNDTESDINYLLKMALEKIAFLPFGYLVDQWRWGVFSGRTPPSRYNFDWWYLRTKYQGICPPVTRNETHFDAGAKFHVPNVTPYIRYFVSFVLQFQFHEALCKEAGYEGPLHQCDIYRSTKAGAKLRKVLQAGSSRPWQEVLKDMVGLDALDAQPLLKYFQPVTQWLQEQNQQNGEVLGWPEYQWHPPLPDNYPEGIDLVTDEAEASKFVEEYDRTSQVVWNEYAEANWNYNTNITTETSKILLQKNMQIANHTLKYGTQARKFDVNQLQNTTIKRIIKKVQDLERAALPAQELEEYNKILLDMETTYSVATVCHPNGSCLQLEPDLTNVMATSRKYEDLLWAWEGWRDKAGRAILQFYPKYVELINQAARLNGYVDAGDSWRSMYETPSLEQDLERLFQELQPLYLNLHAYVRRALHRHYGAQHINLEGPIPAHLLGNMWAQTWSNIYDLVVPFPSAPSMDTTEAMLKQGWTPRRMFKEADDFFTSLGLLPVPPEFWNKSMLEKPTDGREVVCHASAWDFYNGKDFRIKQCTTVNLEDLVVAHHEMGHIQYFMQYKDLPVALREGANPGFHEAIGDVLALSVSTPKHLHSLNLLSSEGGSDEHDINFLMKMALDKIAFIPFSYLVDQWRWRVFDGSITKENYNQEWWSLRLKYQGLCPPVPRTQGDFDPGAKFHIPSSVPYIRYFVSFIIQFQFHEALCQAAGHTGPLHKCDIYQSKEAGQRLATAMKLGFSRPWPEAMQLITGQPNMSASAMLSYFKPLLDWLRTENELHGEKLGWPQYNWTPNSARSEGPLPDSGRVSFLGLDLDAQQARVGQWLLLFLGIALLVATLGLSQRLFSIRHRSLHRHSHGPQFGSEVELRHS", "assay": "ACE-inhibitory activity assay of synthetic peptides (HHL substrate, hippuric acid by RP-HPLC)", "type": "biochemical", "details": "for inhibition at 1000 µg/mL: 0.75 h, peptide 1 mg/mL; for IC50: Table 2, top 8 peptides", "experimental": "The peptides were prepared by the fmoc solid-phase method (purity ≥ 98% by HPLC) at Genscript Biotech Corporation (Nanjing, China). ACE-inhibitory activity of the synthesized peptides was evaluated according to the method of Ma. et al., with some modifications. In brief, 50 µL of sample was added into 150 µL of 5 mmol·L^−1 hippuryl-l-histidyl-l-leucine (HHL) and incubated for 10 min at 37 °C. Then, the enzymatic reaction was initiated by addition of 50 µL of 50 mU/mL ACE solution and kept at a constant temperature of 37 °C for 45 min. The reaction was then terminated by adding 250 µL of 1 mol·L^−1 HCl. RP-HPLC (Waters, Milford, MA, USA) was used to measure hippuric acid (HA) formation at 220 nm. […] The IC50 value represents the concentration of the peptide that inhibits 50% of ACE activity under the assay conditions."}, "ACE [2]": {"target": "T1, ACE", "details": "read-out: IC50, ACE inhibition, cited from earlier work"}, "[3]": {"details": "attributed to multiple hydrophobic amino acids"}, "ACE [4]": {"target": "T1, ACE", "assay": "Surface plasmon resonance (SPR) assay", "type": "binding", "experimental": "The affinity interaction between TLRFALHGME and ACE was verified by SPR experiments. In brief, 5 ug ACE was fixed on a COOH sensor chip by capture-coupling. Afterwards, 50–800 μmol·L^−1 of TLRFALHGME were injected sequentially into the chamber in PBS running buffer. The SPR assay was performed at 25 °C on an OpenSPRTM (Nicoya Lifesciences, Waterloo, QC, Canada). The conditions for the analysis were set at a flow rate of 20 μL·min^−1, the binding time was 240 s, and the disassociation time was 480 s. Chips were regenerated using a regeneration buffer (0.25% SDS). A one-to-one diffusion-corrected model was fitted to the wavelength shifts corresponding to the series of TLRFALHGME concentrations. The kinetic constant analysis was performed using TraceDrawer 1.9.1 software (Ridgeview Instruments AB, Uppsala, Sweden) to determine the association constant (Ka) and dissociation constant (Kd). The affinity constant (KD) was calculated as the ratio kd/ka."}, "hypertensive rats": {"test_system": "hypertensive rats", "parameters": "method as in PMID 34783331", "details": "cited from earlier work"}, "[5]": {"target": "T2, angiotensin-I-converting enzyme (UniProt P12822 34-1260)", "T2 sequence (looked up)": "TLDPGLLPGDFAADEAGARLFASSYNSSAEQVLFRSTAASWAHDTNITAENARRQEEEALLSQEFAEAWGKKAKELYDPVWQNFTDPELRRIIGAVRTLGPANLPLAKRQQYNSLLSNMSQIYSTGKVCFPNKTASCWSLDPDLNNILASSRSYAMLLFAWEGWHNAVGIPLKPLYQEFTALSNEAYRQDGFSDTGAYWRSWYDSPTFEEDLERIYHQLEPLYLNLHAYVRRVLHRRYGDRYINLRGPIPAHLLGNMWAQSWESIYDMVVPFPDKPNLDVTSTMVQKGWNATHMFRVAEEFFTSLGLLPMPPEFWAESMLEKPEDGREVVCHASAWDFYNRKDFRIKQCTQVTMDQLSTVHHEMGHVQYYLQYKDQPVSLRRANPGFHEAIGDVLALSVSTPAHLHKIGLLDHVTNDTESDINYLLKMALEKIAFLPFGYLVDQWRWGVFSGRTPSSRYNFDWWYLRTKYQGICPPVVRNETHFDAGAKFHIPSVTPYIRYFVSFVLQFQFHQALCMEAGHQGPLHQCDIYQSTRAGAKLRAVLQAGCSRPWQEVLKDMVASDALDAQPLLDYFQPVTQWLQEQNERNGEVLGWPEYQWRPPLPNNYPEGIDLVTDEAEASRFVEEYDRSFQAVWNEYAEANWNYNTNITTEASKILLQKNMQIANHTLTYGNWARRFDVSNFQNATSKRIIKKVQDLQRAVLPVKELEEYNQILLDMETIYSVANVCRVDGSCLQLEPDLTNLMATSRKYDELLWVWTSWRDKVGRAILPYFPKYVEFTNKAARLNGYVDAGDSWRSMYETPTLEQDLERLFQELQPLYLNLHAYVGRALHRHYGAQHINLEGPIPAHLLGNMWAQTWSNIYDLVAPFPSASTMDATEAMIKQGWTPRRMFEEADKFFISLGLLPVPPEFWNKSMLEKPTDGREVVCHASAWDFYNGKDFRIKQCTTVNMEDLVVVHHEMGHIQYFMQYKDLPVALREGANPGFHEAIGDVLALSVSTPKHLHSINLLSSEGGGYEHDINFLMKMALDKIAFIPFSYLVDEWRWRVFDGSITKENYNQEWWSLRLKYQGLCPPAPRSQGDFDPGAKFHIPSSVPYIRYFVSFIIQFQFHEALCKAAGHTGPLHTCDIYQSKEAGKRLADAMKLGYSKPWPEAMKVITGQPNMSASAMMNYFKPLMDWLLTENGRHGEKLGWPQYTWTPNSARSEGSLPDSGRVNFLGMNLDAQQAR"}, "[6]": {"target": "T2, angiotensin-I-converting enzyme", "assay": "cell-based or functional assay"}, "[7]": {"details": "from Volutharpa ampullacea perryi hydrolysate, Zn-SBA-15-immobilized ACE and HPLC"}}, "note": "Where two headings read alike, the source gives them in different places. Where a SMILES comes first, the peptide text is derived from it. Where no end group is shown, it is not given here.", "data": [{"molecule": "CC(C)C[C@H](NC(=O)[C@H](C)NC(=O)[C@H](C)NC(=O)[C@@H](N)CO)C(=O)O", "note": "[SAAL] (H-SAAL-OH; N-terminus and C-terminus assumed)", "values": [{"measurement": "inhibition at 1000 µg/mL", "setting": "ACE [1]", "value": "> 50", "unit": "%"}, {"measurement": "IC50", "setting": "ACE [1]", "value": 883, "unit": "µM"}]}, {"molecule": "CC(C)C[C@H](NC(=O)[C@H](CC(C)C)NC(=O)[C@@H](NC(=O)[C@@H](N)[C@@H](C)O)C(C)C)C(=O)O", "note": "[TVLL] (H-TVLL-OH; N-terminus and C-terminus assumed)", "values": [{"measurement": "inhibition at 1000 µg/mL", "setting": "ACE [1]", "value": "> 50", "unit": "%"}, {"measurement": "IC50", "setting": "ACE [1]", "value": 582, "unit": "µM"}]}, {"molecule": "CC(C)C[C@H](NC(=O)[C@@H](N)C(C)C)C(=O)NCC(=O)N[C@@H](C)C(=O)O", "note": "[VLGA] (H-VLGA-OH; N-terminus and C-terminus assumed)", "values": [{"measurement": "inhibition at 1000 µg/mL", "setting": "ACE [1]", "value": "> 50", "unit": "%"}, {"measurement": "IC50", "setting": "ACE [1]", "value": 1370, "unit": "µM"}]}, {"molecule": "CC(C)C[C@H](NC(=O)[C@H](CC(C)C)NC(=O)[C@@H](NC(=O)[C@@H](N)Cc1ccc(O)cc1)C(C)C)C(=O)O", "note": "[YVLL] (H-YVLL-OH; N-terminus and C-terminus assumed)", "values": [{"measurement": "inhibition at 1000 µg/mL", "setting": "ACE [1]", "value": "> 50", "unit": "%"}, {"measurement": "IC50", "setting": "ACE [1]", "value": 154, "unit": "µM"}]}, {"molecule": "IVTNWDDMEL", "values": [{"measurement": "IC50", "setting": "ACE [2]; [7]", "value": 2080, "unit": "µM"}]}, {"molecule": "RSTGALAL [RSTGALAL]", "values": [{"measurement": "inhibition at 1000 µg/mL", "setting": "ACE [1]", "value": "> 50", "unit": "%"}, {"measurement": "IC50", "setting": "ACE [1]", "value": 5840, "unit": "µM"}]}, {"molecule": "TFTGA [TFTGA]", "values": [{"measurement": "inhibition at 1000 µg/mL", "setting": "ACE [1]", "value": "> 50", "unit": "%"}, {"measurement": "IC50", "setting": "ACE [1]", "value": 694, "unit": "µM"}]}, {"molecule": "TLFGL [TLFGL]", "values": [{"measurement": "Solubility", "setting": "[3]", "value": "low solubility"}, {"measurement": "inhibition at 1000 µg/mL", "setting": "ACE [1]", "value": "> 50", "unit": "%"}, {"measurement": "IC50", "setting": "ACE [1]", "value": 57.5, "unit": "µM"}]}, {"molecule": "TLRFALHGME [TLRFALHGME]", "values": [{"measurement": "koff", "setting": "ACE [4]; 25 °C, 50–800 µmol·L^−1 peptide, read-out: Kd (dissociation rate constant)", "value": 0.002, "unit": "s⁻¹"}, {"measurement": "Kd", "setting": "ACE [4]; KD, printed in Figure 7", "value": 80.8, "unit": "µM"}, {"measurement": "Kd", "setting": "ACE [4]; abstract, read-out: Kd (binding affinity to ACE)", "value": 80.9, "unit": "µM"}, {"measurement": "inhibition at 1000 µg/mL", "setting": "ACE [1]", "value": "> 50", "unit": "%"}, {"measurement": "IC50", "setting": "ACE [1]", "value": 93.5, "unit": "µM"}]}, {"molecule": "VGPAGRPG", "values": [{"measurement": "IC50", "setting": "ACE [2]; [7]", "value": 4660, "unit": "µM"}]}, {"molecule": "VYP", "values": [{"measurement": "IC50", "setting": "ACE [2]; from lizard fish protein hydrolysates, MA-IML", "value": 108, "unit": "µM"}]}, {"molecule": "WGAP", "values": [{"measurement": "Reduction of diastolic blood pressure", "setting": "hypertensive rats", "value": "≤ 28.56 ± 2.71", "unit": "mmHg"}, {"measurement": "Reduction of systolic blood pressure", "setting": "hypertensive rats", "value": "up to 42.66 ± 2.87 mmHg"}]}, {"molecule": "VLGA", "values": [{"measurement": "ACE-inhibitory activity (hippuric acid formed from HHL, RP-HPLC), IC50", "setting": "[5]", "value": 1370, "unit": "µM"}]}, {"molecule": "TVLL", "values": [{"measurement": "ACE-inhibitory activity (hippuric acid formed from HHL, RP-HPLC), IC50", "setting": "[5]", "value": 582, "unit": "µM"}]}, {"molecule": "RSTGALAL", "values": [{"measurement": "ACE-inhibitory activity (hippuric acid formed from HHL, RP-HPLC), IC50", "setting": "[6]", "value": 5840, "unit": "µM"}]}, {"molecule": "YVLL", "values": [{"measurement": "ACE-inhibitory activity (hippuric acid formed from HHL, RP-HPLC), IC50", "setting": "[5]", "value": 154, "unit": "µM"}]}, {"molecule": "TFTGA", "values": [{"measurement": "ACE-inhibitory activity (hippuric acid formed from HHL, RP-HPLC), IC50", "setting": "[6]", "value": 694, "unit": "µM"}]}, {"molecule": "SAAL", "values": [{"measurement": "ACE-inhibitory activity (hippuric acid formed from HHL, RP-HPLC), IC50", "setting": "[5]", "value": 883, "unit": "µM"}]}, {"molecule": "TLFGL", "values": [{"measurement": "ACE-inhibitory activity (hippuric acid formed from HHL, RP-HPLC), IC50", "setting": "[6]", "value": 57.5, "unit": "µM"}]}, {"molecule": "B1", "values": [{"measurement": "ACE-inhibitory activity (hippuric acid formed from HHL, RP-HPLC), IC50", "setting": "[6]", "value": 93.5, "unit": "µM"}]}]}
